Peptide text beside a SMILES is read from it. * marks the point of attachment. Cbz = O=C(OCc1ccccc1)*
Legend:
Type in all cases: cell-based, mouse
DC2.4 cells [1] = experiment: Degradation of cell-bound bOVA in DC2.4 cells (pulse-chase, SA beads, Western blot); conditions: for effect on decrease (degradation) of cell-bound bOVA: DC2.4 cells incubated with bOVA one hour, chased up to four hours, inhibitor present; for effect on degradation of bOVA taken up into cells: FIG. 1b; for effect on degradation of accumulated bOVA (ERAD inhibition): DC2.4 cells pulsed with bOVA in the presence of MG-132, chased four hours; for effect on bOVA degradation: FIG. 4b
Protocol: Next, DC2.4 cells were incubated with bOVA for one hour, and this was then chased for up to four hours. Cell-bound bOVA was recovered from total cell lysates by streptavidin-agarose and separated by SDS-PAGE.
Depletion of Ca^2+ in the ER is known to inhibit ERAD. Thapsigargin (Tg) is known to decrease the Ca^2+ concentration in the ER lumen by binding to the ER membrane and functioning as an ionophore and to inhibit ERAD. Thus, in the presence of Tg, bOVA degradation by ERAD is predicted to be suppressed. DC2.4 cells were pulsed with bOVA in the presence of MG-132, then washed with PBS or with PBS containing 1 mM EGTA, and then chased for four hours.
Furthermore, the effect of tunicamycin treatment on bOVA accumulation was examined. When cells are treated with tunicamycin (Tm), N-type glycosylation is inhibited, and abnormally folded proteins accumulate in the ER lumen.

DC2.4 cells [2] = experiment: MHC class I cross-presentation by DC2.4 cells to OT-I CD8+ T cells (IL-2 ELISA); conditions: for effect on stimulation of OT-I CD8+ T cells by OVA (IL-2 production) / effect on stimulation of OT-I CD8+ T cells by SIINFEKL peptide (IL-2 production): FIG. 8b; for effect on stimulation of OT-I CD8+ T cells by OVA (IL-2 production): OVA 250 μg mL−1; for effect on stimulation of OT-I CD8+ T cells by SIINFEKL peptide (IL-2 production): SIINFEKL 10 ng mL−1
Description: Whether knock-down of cellular components involved in ERAD decreases the cross-presentation of exogenous OVA antigen was examined using a system for evaluating the level of antigen presentation, which uses naive CD8^+ T cells from OT-I mice and DC2.4 cells. The DC2.4 cells used as a model of dendritic cells are of the H-2Kb mouse MHC class I haplotype. OT-I (H-2Kb) mice are transgenic mice expressing a T cell receptor (TCRα and β) that recognizes an antigenic peptide (SIINFEKL) (SEQ ID NO: 15) derived from OVA presented on the H-2Kb molecules. The CD8^+ cells of OT-I mice are activated when they recognize OVA peptides presented by BMDCs derived from H-2Kb mice or by DC2.4 cells. When OVA or bOVA is incubated with and affixed onto DC2.4 cells and the cells are further incubated with naive CD8^+ T cells of OT-I mice, the amount of IL-2 produced by OT-I CD8^+ T cells serves as an index of T-cell stimulation as a result of OVA antigen presented by DC2.4 cells.
Parental or knocked-down DC2.4 cells were pre-incubated in a culture medium supplemented with 50 μg mL^−1 polymyxin B for 30 minutes in the presence or absence of lactacystin or MG-132, and incubated with OVA (250 μg mL^−1) or SIINFEKL peptides (10 ng mL^−1) for six hours. The cells were washed, fixed with 1% paraformaldehyde, and aliquoted into microtiter plates (5×10^4 per well). 5×10^4 CD8^+ T cells purified from splenocytes of OT-1 mice using magnetic beads were added to each well and after a 24-hour incubation, the IL-2 secretion was measured by ELISA (BD Biosciences) in triplicate.
DC2.4 cells were incubated with OVA (0, 50, or 250 μg/mL) in RPMI1640/10c% FCS for six hours at 37° C., in the presence or absence of pig-derived HSP90 (10 μg/mL). After washing away the antigen and HSP, OT-I CD8^+ T cells were added, cells were cultured overnight at 37° C., and the amount of IL-2 comprised in the supernatant was measured by the ELISA method.
The timing of the addition of HSP90 (10 μg/mL) and OVA (250 μg/mL) to DC2.4 cells was varied, and the effect on class I antigen presentation was observed. (i) HSP90 was added first, DC2.4 cells were washed, and then OVA was added. (ii) HSP90 and OVA were added simultaneously to DC2.4 cells. (iii) OVA was added first, and after washing DC2.4 cells, HSP90 was added. The results obtained under these three conditions were compared. As a control for all these conditions, an experiment in which only OVA, but not HSP90, was added was also carried out.
Under condition (i), HSP90 was added to DC2.4 cells, the cells were cultured for 30 minutes and then washed to remove HSP90. Next, OVA was added and the cells were cultured for three hours. Thereafter, OVA was removed by washing, and cells were cultured in just the culture medium for three hours. DC2.4 cells activated with OVA by the above procedure were plated in a 96-well plate, OT-I mouse-derived CD8^+ T cells were added to this, and after culturing overnight, the amount of IL-2 released into the supernatant was measured by ELISA.
Under condition (ii), OVA and HSP90 were added simultaneously to DC2.4 cells, cells were cultured for three hours, then washed, and cultured in just the culture medium for three hours. Thereafter, the procedures to investigate the activation of OT-I mouse-derived CD8^+ T cells was carried out similarly to in (i) above.
Under condition (iii), OVA was first added to DC2.4 cells, cells were cultured for three hours, and then washed to remove OVA. Next, HSP90 was added, and the cells were cultured for another three hours. The procedures that follow were carried out similarly to that of (i) and (ii). Meanwhile, timings were set such that the incubation times during the stage in which cells are in contact with OVA and the stage at which OVA has been taken up were the same under conditions (i) to (iii).

DC2.4 cells [3] = experiment: MHC class II antigen presentation by DC2.4 cells to OT-II CD4+ T cells (IL-2 production); conditions: DC2.4 cells pretreated in the presence of NH4Cl, cultured with OVA
Protocol: DC2.4 cells pretreated in the presence of NH4Cl were cultured with OVA, and then the stimulation of OT-I CD8^+ T cells in response to MHC class I antigen presentation (circles) and stimulation of OT-II CD4^+ T cells in response to MHC class II antigen presentation (triangles) was determined by measuring IL-2 production levels. IL-2 production level in the presence of NH4Cl was expressed as a ratio relative to the control (IL-2 production was 700 pg/mL relative to OT-I, and 20 pg mL relative to OT-II).

## CC(C)C[C@@H](C=O)NC(=O)[C@H](CC(C)C)NC(=O)[C@H](CC(C)C)NC(=O)OCc1ccccc1 [MG-132, reference compound] (Cbz-Leu-Leu-Leu-aldehyde)
DC2.4 cells [1]
  effect on decrease (degradation) of cell-bound bOVA: this decrease was blocked
DC2.4 cells [1]; MG-132 10 μM
  effect on degradation of bOVA taken up into cells: reduced the degradation of bOVA taken up into cells
DC2.4 cells [2]; MG-132 25 μM
  effect on stimulation of OT-I CD8+ T cells by OVA (IL-2 production): suppressed stimulation by OVA
  effect on stimulation of OT-I CD8+ T cells by SIINFEKL peptide (IL-2 production): did not suppress stimulation by the SIINFEKL peptide

## Cl.N [NH4Cl, Ammonium chloride, reference compound]
DC2.4 cells [1]
  effect on decrease (degradation) of cell-bound bOVA: did not significantly affect bOVA degradation
DC2.4 cells [1]; NH4Cl 50 mM
  effect on degradation of bOVA taken up into cells: did not reduce this degradation
DC2.4 cells [2]; DC2.4 cells pretreated with inhibitor, cultured with OVA
  effect on presentation of OVA antigen with MHC class I to OT-I CD8+ T cells: did not reduce the presentation of the OVA antigen with MHC class I
DC2.4 cells [3]
  effect on presentation of OVA antigen with MHC class II to OT-II CD4+ cells: inhibited the presentation with MHC class II

## CC(=O)N[C@@H](CSC(=O)[C@]1([C@@H](O)C(C)C)NC(=O)[C@H](C)[C@@H]1O)C(=O)O [lactacystin, reference compound]
DC2.4 cells [1]
  effect on decrease (degradation) of cell-bound bOVA: this decrease was blocked
DC2.4 cells [1]; lactastatin 2 μM
  effect on degradation of bOVA taken up into cells: reduced the degradation of bOVA taken up into cells
DC2.4 cells [2]; Lactastatin 10 μM
  effect on stimulation of OT-I CD8+ T cells by OVA (IL-2 production): suppressed stimulation by OVA
  effect on stimulation of OT-I CD8+ T cells by SIINFEKL peptide (IL-2 production): did not suppress stimulation by the SIINFEKL peptide

## C/C=C(/C)C(=O)O[C@H]1C(C)=C2[C@H]([C@@H]1OC(=O)CCCCCCC)[C@@](C)(OC(C)=O)C[C@H](OC(=O)CCC)[C@@]1(O)[C@H]2OC(=O)[C@@]1(C)O [thapsigargin, Thapsigargin]
DC2.4 cells [1]
  effect on degradation of accumulated bOVA (ERAD inhibition): inhibited the degradation of accumulated bOVA
DC2.4 cells [1]; thapsigargin 300 nM
  effect on bOVA degradation: bOVA degradation is inhibited

## tunicamycin
DC2.4 cells [1]
  effect on degradation of accumulated bOVA (ERAD inhibition): bOVA degradation was inhibited
DC2.4 cells [1]; tunicamycin 2 g
  effect on bOVA degradation: bOVA degradation is inhibited

Source: patent US20080194020A1, “Methods For Producing Dendritic Cells That Have Acquired Ctl-Inducing Ability” (Medical and Biological Laboratories Co., Ltd., priority 2004, published 2008)
